Laboratory results taken from patent US12653805B2, “Targeting LASP1, eIF4A1, eIF4B and CXC4 with modulators and combinations thereof for cancer therapy” (The University of Toledo, priority 2019, dated 2026).

How the values were obtained:
MDA-MB-231 cells = settings: cited from earlier work
[1] = tested on: LASP1-eIF4A interaction in 231S cells; assay: Proximity ligation assay (PLA) of LASP1-eIF4A interaction; assay type: cell-based, human
Description: The Duolink In Situ Orange Fluorescent kit (Sigma/Aldrich, St. Louis, Mo., Cat. No. DUO92102-1KT) was employed to detect the endogenous interaction between LASP1 and eIF4A in situ in 231S cells. The PLA was performed according to the manufacturer's instructions using a rabbit eIF4A1 antibody (Cohesion Biosciences, London, Purley, Cat. No. CQA1180) and a mouse LASP1 antibody (Biolegend, San Diego, Calif., Cat. No. 909301). The single Ab control condition represents the PLA reaction with only the LASP1 antibody. In addition, cells were stained with phalloidin (Life Technologies, Carlsbad, Calif., Cat. No. A12379) and nuclei with DRAQ5 (Thermo Scientific, Rockford, Ill., Cat No. 62251). Cells were stimulated and inhibited as described. Moreover, cells were fixed, stained, and permeabilized with standard methods. The images were acquired by two-photon confocal microscopy and processed with Leica Application Suite X software (Leica, Wetzlar, Germany). Quantification of the interaction dots was performed using ImageJ.

[2] = tested on: LASP1-eIF4A/eIF4B association in 231S cells; assay: Co-immunoprecipitation of LASP1 with eIF4A/eIF4B; assay type: cell-based, human
Description: Subconfluent 231S cells were serum-starved for 1 hour and stimulated with 10-20 nM CXCL12 (PeptroTech, Rocky Hill, N.J., Cat. No. 300-28A) over different time points. […] Total protein in the clarified lysate was quantified using a Bradford protein assay (Bio-Rad, Hercules, Calif., Cat. No. 5000006). 1 mg of total protein lysate was employed in all immunoprecipitation reactions. eIF4B was immunoprecipitated by using 2 μg of eIF4B antibody (Cell Signaling Technology, Danvers, Mass., Cat. No. 13088). Mouse (G3A1) mAb IgG1 Isotype Control (Cell Signaling Technology, Danvers, Mass., Cat. No. 5415) served as the mock control. Next, eIF4A was immunoprecipitated using 2 μg of eIF4A1 antibody (Cohesion Biosciences, London, Purley, Cat. No. CQA1180). His-Tag (D3L10) XP® Rabbit mAb (Cell Signaling Technology, Danvers, Mass., Cat. No. 12698) was employed for the mock condition. Finally, in the reciprocal Co-IP, LASP1 was immunoprecipitated by using 2 μg LASP1 antibody (Biolegend, San Diego, Calif., Cat. No. 909301). As in the eIF4B Co-IP, mouse (G3A1) IgG1 isotype mAb was employed as the mock control. […] Proteins of interest were analyzed by sodium dodecyl sulfate-polyacrylamide gel electrophoresis (SDS-PAGE) and Western blotting.

[3] = tested on: eIF4F complex in 231S cells; assay: m7GTP pulldown assay (eIF4F complex); assay type: cell-based, human
Description: 231S cells were serum starved for 1 h and cells were stimulated (and prepared) as described in the co-immunoprecipitation section. 100 nM AMD3465 (CXCR4 antagonist, Sigma-Aldrich, St. Louis, Mo., Cat. No. SML1433-5MG) was incubated 30 min prior to stimulation. 1 mg of total protein lysate in 1 mL of Co-IP buffer was incubated with 25 μL of m7-GTP agarose beads overnight at 4° C. (Jena Biosciences, Jena, Germany, Cat. No. AC-155S). Following incubation, beads were washed with Co-IP buffer. Protein was eluted and analyzed by SDS-PAGE and Western blotting.

[4] = tested on: CXCR4 signaling in 231S cells; assay: Western blotting of phosphorylation of eIF4B, PDCD4, 4E-BP1 after CXCR4 activation; assay type: cell-based, human
Description: (§1) Cell lysates were prepared and quantified as described. Western blots were incubated with the following 1° Abs: Cyclin D1 (Cell Signaling Technology, Danvers, Mass., Cat. No. 2922), eIF4A C32B4 (Cell Signaling Technology, Danvers, Mass., Cat. No. 2013), eIF4B 1F5 (Cell Signaling Technology, Danvers, Mass., Cat. No. 13088), p-eIF4B S422 (Thermo Scientific, Rockford, Ill., Cat No. PA5-38362), eIF4E C46H6 (Cell Signaling Technology, Danvers, Mass., Cat. No. 2067), eIF4G C45A4 (Cell Signaling Technology, Danvers, Mass., Cat. No. 2469), GST 26H1 (Cell Signaling Technology, Danvers, Mass., Cat. No. 2624), LASP1 8C6 (Biolegend, San Diego, Calif., Cat. No. 909301), MDM2 SMP14 (Santa Cruz Biotechnology, Dallas, Tex., Cat. No. sc-965), PDCD4 D29C6 (Cell Signaling Technology, Danvers, Mass., Cat. No. 9535), p-PDCD4 S67 (Sigma-Aldrich, St. Louis, Mo., Cat. No. P0072), ROCK1 C8F7 (Cell Signaling Technology, Danvers, Mass., Cat. No. 4035), survivin 71G4B7 (Cell Signaling Technology, Danvers, Mass., Cat. No. 2808), 4E-BP1 53H11 (Cell Signaling Technology, Danvers, Mass., Cat. No. 9644), p-4E-BP1 Thr70 (Cell Signaling Technology, Danvers, Mass., Cat. No. 9455), and β-tubulin D66 (Sigma/Aldrich, St. Louis, Mo., Cat. No. T0198). Following primary incubation, Western blots were incubated with Goat anti-Mouse IgG (H+L) Superclonal™ Secondary Ab conjugated to HRP (Thermo Scientific, Rockford, Ill., Cat No. A28177) or Goat anti-Rabbit IgG (H+L) Superclonal™ Secondary Ab conjugated to HRP (Thermo Scientific, Rockford, Ill., Cat No. A27036). Finally, blots were developed with Amersham™ ECL™ Prime Western Blotting Detection Reagent (GE Healthcare Life Sciences, Pittsburgh, Pa., Cat. No. RPN2232) and HyBlot ES™ Autoradiography Film (Denville Scientific, Swedesboro, N.J., Cat. No. E3212). Densitometry of the Western blots was performed using ImageJ. Calculation of fold change is given in the figure legend for each experiment.

231S LASP1 NS cells = assay: Western blotting of eIF4A-dependent genes after CXCL12 stimulation; assay type: cell-based, human; settings: control-silenced (LASP1 NS) 231S cells, 10-20 nM CXCL12
Description: as §1, with “Following primary incubation, Western blots were incubated with Goat anti-Mouse IgG (H+L) Superclonal™ Secondary Ab conjugated to HRP (Thermo Scientific, Rockford, Ill., Cat No. A28177) or Goat anti-Rabbit IgG (H+L) Superclonal™ Secondary Ab conjugated to HRP (Thermo Scientific, Rockford, Ill., Cat No. A27036). Finally, blots were developed with Amersham™ ECL™ Prime Western Blotting Detection Reagent (GE Healthcare Life Sciences, Pittsburgh, Pa., Cat. No. RPN2232) and HyBlot ES™ Autoradiography Film (Denville Scientific, Swedesboro, N.J., Cat. No. E3212). Densitometry of the Western blots was performed using ImageJ. Calculation of fold change is given in the figure legend for each experiment.” left out

Molecule | IC50 (MDA-MB-231 cells) [nM] | stimulation of the interaction between LASP1 and eIF4A ([1]; CXCL12 5 min vs unstimulated) [fold] | LASP1-eIF4A interaction dots (interactions/cell) ([1]; CXCL12 incubation for 5 min (20 nM), unstimulated 11.6±6.5) [dots] | increase in association of LASP1 with eIF4B (reciprocal Co-IP) ([2]; 20 nM CXCL12, 0 min set to 1) [fold] | association of endogenous LASP1 and eIF4A1 (reciprocal Co-IP) ([2]; 20 nM CXCL12, 5 min, 0 min set to 1) [fold] | eIF4G-eIF4E interaction (eIF4G recruitment) ([3]; 20 nM CXCL12, 20 min) [fold] | association of endogenous LASP1 with eIF4E ([3]; 20 nM CXCL12, peak at 5 min) [fold] | eIF4G-eIF4E interaction (eIF4G recruitment) ([3]; 20 nM CXCL12, peak at 5 min) [fold] | phosphorylation of PDCD4 (pS67) ([4]; CXCL12, 5 min) [fold] | phosphorylation of PDCD4 (pS67) ([4]; CXCL12, peak at 10 min) [fold] | protein levels of CCND1, BIRC5, Mdm2, and ROCK1 (231S LASP1 NS cells)
COC(=O)[C@H]1[C@@H](O)[C@@]2(O)c3c(OC)cc(O[C@@H]4O[C@@H]([C@H](O)CO)CO[C@H]4OC)cc3O[C@@]2(c2ccc(OC)cc2)[C@@H]1c1ccccc1 [Silvestrol] | 60 | – | – | – | – | – | – | – | – | – | –
CXCL12: ligand for CXCR4 (PeproTech), used to stimulate cells | – | 3 | 118±58.3 | 7.5 | 19.1 | 2.2 | 2.2 | 4.4 | 3.3 | 3.9 | considerable increases
